The source made the active and inactive calls. No cut-off for these calls is given here.

Assay [1] is filed under the species Homo sapiens. The experiment in a line: Inhibition of P-gp (unknown origin) in P-gp enriched membranes assessed as […] at 100 uM in presence of Mg2-ATP after 40 mins by luciferase reporter gen assay relative to control. Type of assay: cell membranes. A general note: A reporter such as luciferase makes a cellular process visible.
Assay [2] can be described thus: (§1) Antiproliferative activity against human KB3-1 cells after 24 hrs by MTT assay. Type of assay: functional, cell-based. The conditions noted are these: KB 3-1, 24 h.
A short description of assay [3]: Antiproliferative activity against human KBV1 cells over expressing P-gp after 24 hrs by MTT assay. Type of assay: functional, cell-based. The conditions noted are these: KB-V1, 24 h. For orientation: Formazan colour is commonly taken as a measure of viable cells.
The nature of assay [4]: (§2) Antiproliferative activity against human KBV1 cells over expressing P-gp after 24 hrs in presence of P-gp inhibitor elacridar by MTT assay. The conditions noted are these: KB-V1, 24 h. The assay is classed as functional, cell-based.
Assay [5] can be described thus: (§3) Antiproliferative activity against human KB3-1 cells after 24 hrs in presence of P-gp inhibitor elacridar by MTT assay. Type of assay: functional, cell-based. The conditions noted are these: KB 3-1, 24 h.
The species named for assay [6] is Homo sapiens. The experiment in a line: Substrate activity at P-gp (unknown origin) in P-gp enriched membranes assessed as increase in ATPase activity at 50 uM in presence of Mg2-ATP after 40 mins by luciferase reporter gen assay relative to control. Type of assay: cell membranes.
The subject of assay [7] is KB 3-1. Described as §1. The assay is classed as functional, cell-based.
The nature of assay [8]: Selectivity ratio of IC50 for human KB31 cells to IC50 for human KBV1 cells over expressing P-gp. The assay is classed as functional.
The subject of assay [9] is KB 3-1. The assay is described as §3. The assay is classed as functional, cell-based.
Assay [10] has as its system KB-V1. Description: Induction of oxidative stress-dependent lysosomal membrane permeabilization in human KBV1 cells over expressing P-gp assessed as decrease in cathepsin D and LAMP2 lysosomal colocalization at 25 uM after 24 hrs by TexasRed staining based immunofluorescence microscopic analysis. The assay is classed as functional, cell-based.
The subject of assay [11] is KBV1. Description: Induction of P-gp-mediated lysosomal membrane permeabilization in human KBV1 cells over expressing P-gp assessed as cathepsin D release from lysosome to cytosol at 25 uM after 24 hrs by TexasRed staining based immunofluorescence microscopic analysis. Type of assay: cell-based.
The subject of assay [12] is KBV1. The experiment in a line: Induction of P-gp-mediated lysosomal membrane permeabilization in human KBV1 cells over expressing P-gp assessed as increase in LAMP2 fluorescence at 25 uM after 24 hrs by TexasRed staining based immunofluorescence microscopic analysis. The assay is classed as cell-based.
For assay [13], the system named is KB-V1. Description: Induction of copper-dependent lysosomal membrane permeabilization in human KBV1 cells over expressing P-gp assessed as decrease in cathepsin D and LAMP2 lysosomal colocalization at 25 uM after 24 hrs by TexasRed staining based immunofluorescence microscopic analysis. The assay is classed as functional, cell-based.
The test system of assay [14] is KBV1. The experiment in a line: Induction of P-gp-mediated lysosomal membrane permeabilization in human KBV1 cells over expressing P-gp assessed as increase in LAMP2 fluorescence at 10 uM after 24 hrs by TexasRed staining based immunofluorescence microscopic analysis. The assay is classed as cell-based.
The test system of assay [15] is KB-V1. The experiment in a line: Induction of copper-dependent lysosomal membrane permeabilization in human KBV1 cells over expressing P-gp assessed as decrease in cathepsin D and LAMP2 lysosomal colocalization at 10 uM after 24 hrs by TexasRed staining based immunofluorescence microscopic analysis. The assay is classed as functional, cell-based.
The subject of assay [16] is KB-V1. Description: Induction of oxidative stress-dependent lysosomal membrane permeabilization in human KBV1 cells over expressing P-gp assessed as decrease in cathepsin D and LAMP2 lysosomal colocalization at 10 uM after 24 hrs by TexasRed staining based immunofluorescence microscopic analysis. The assay is classed as functional, cell-based.
For assay [17], the system named is KBV1. Description: Induction of P-gp-mediated lysosomal membrane permeabilization in human KBV1 cells over expressing P-gp assessed as cathepsin D release from lysosome to cytosol at 10 uM after 24 hrs by TexasRed staining based immunofluorescence microscopic analysis. Type of assay: cell-based.
In assay [18] the test system is KB-V1. Described as §2. Type of assay: functional, cell-based.

Take SODIUM ORTHOVANAD: in the assay filed under Homo sapiens [1], the fold change (FC) is 11.9.

Broadly, the IC50 is the midpoint of a concentration-inhibition curve. Consider `NC(=S)N/N=C/c1ncccc1N` [TRIAPINE], for which the IC50 in assay [2], in assay [3], in assay [4] and in assay [5] was above 800 µM in each case. Besides, in the assay listed under Homo sapiens [6], the fold change (FC) amounted to 4.6.

With `CN(C)C(=S)N/N=C(/c1ccccc1)c1ccccn1`, the outcome in the assay on KB 3-1 [7], in the assay with KB 3-1 [9], in the assay with KB-V1 [10], in the assay with KBV1 [11], with KBV1 [12] and in the assay on KB-V1 [13] was Active. The “Ratio IC50” value in [8] is recorded as 13.2. The fold change (FC) in the assay filed under Homo sapiens [6] was 7.9.

On to `CN(/N=C(\c1ccccc1)c1ccccn1)C(N)=S`, for which the IC50 in [2], in assay [3], in assay [4] and in assay [5] was above 800 µM in each case. Further, in the assay filed under Homo sapiens [6], the fold change (FC) turned out to be 5.2.

In the case of `CN(C(=S)NN=C(c1ccccn1)c1ccccn1)C1CCCCC1`, the outcome in the assay on KB 3-1 [7], with KB 3-1 [9], in the assay with KB-V1 [10], in the assay with KBV1 [11], in the assay on KBV1 [12] and in the assay on KB-V1 [13] was Active. For the same compound, the “Ratio IC50” value in [8] is reported as 8.1. For the same compound, in the assay filed under Homo sapiens [6], the fold change (FC) turned out to be 7.4.

Regarding `CN(C)C(=S)NN=C(c1ccccn1)c1ccccn1`, the result with KB 3-1 [7], in the assay with KBV1 [14], in the assay with KB-V1 [15], in the assay with KB-V1 [16], with KB 3-1 [9] and in the assay on KBV1 [17] was Active. Besides, the fold change (FC) in the assay filed under Homo sapiens [6] was 6.6.

Take `C/C(=N/NC(=S)N(C)C)c1ccccn1`: the outcome in the assay with KB 3-1 [7], with KB-V1 [18] and in the assay on KB 3-1 [9] was Active. In addition, the “Ratio IC50” value in assay [8] stood at 2.1. Also, the fold change (FC) in the assay listed under Homo sapiens [6] was 5.1.

Source of the values: ChEMBL document CHEMBL3856230, “Structure-Activity Relationships of Di-2-pyridylketone, 2-Benzoylpyridine, and 2-Acetylpyridine Thiosemicarbazones for Overcoming Pgp-Mediated Drug Resistance” (J Med Chem, 2016).
